Here are results for nine compounds from patent publication US9045389B2, “Biphenyl derivatives useful as glucagon receptor antagonists” (Janssen Pharmaceutica NV, priority 2011, dated 2015).

pKi: −log10 of the molar value.

This assay deals with human GCGR (Homo sapiens (Human), UniProt P47871). Put plainly: Cellular functional assay, cAMP readout: glucagon stimulated cAMP in HEK293 cells expressing human GCGR (LANCE TR-FRET). It is filed as cell-based. As for the experimental part: IC50 Values in Cellular Functional Assays: cAMP Readout
Full-length human GCGR (Accession Number: NM000160) subcloned into pcDNA3.1 was stably transfected into HEK293 cells (hGluc-1 HEK) and maintained under G418 selection (500 μg/mL). Cell cultures were maintained in DMEM/F12 media supplemented with 10% FBS and 1% GlutaMax. Glucagon stimulated cAMP was quantified using LANCE technology as per manufacturer instructions. On the day of the experiment, spent media was removed and cells were washed with Hank's Buffered Saline solution (HBSS) and cells were harvested with non-enzymatic cell dissociation solution, then washed once with HBSS. Cells were re-suspended in stimulation buffer at a concentration of 0.83×10^6 cells/ml and cAMP detection antibody was added. 6 μl/well of this solution was then dispensed in a 384 well plate (cell density 5000 cells/well). Test compound was serially diluted in DMSO and 50 nl were dispensed on top of the cell solution and allowed to incubate for 30 minutes. 6 μl of a 2× glucagon solution (final concentration in assay 100 pM) was then added and the reaction was terminated after 5 minutes with the addition of detection mix. The resulting mixture was incubated, protected from light for 1.5 h. cAMP levels were quantified by TR-FRET in an EnVision instrument against a known standard. IC50's were generated by using a non-linear regression macro driven in Excel and converted to Ki values.

Sequence of human GCGR (P47871 26-477): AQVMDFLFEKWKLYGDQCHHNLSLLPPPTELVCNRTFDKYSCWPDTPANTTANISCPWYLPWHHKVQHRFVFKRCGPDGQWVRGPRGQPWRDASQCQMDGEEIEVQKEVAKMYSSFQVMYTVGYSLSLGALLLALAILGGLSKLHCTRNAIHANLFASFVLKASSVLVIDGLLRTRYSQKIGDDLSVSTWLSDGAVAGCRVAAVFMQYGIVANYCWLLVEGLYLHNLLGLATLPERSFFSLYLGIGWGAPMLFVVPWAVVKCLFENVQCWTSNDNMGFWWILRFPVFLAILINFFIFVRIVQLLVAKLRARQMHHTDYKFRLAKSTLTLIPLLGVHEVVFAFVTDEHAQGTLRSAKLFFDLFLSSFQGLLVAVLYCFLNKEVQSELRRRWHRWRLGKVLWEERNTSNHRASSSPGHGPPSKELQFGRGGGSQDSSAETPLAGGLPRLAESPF

For the compound `Cc1cc(Cl)ccc1-c1ccc(NCc2ccc(C(F)(F)F)cc2-c2ccc(C(=O)NCCC(=O)O)cc2C)cc1Cl` [Compound 5, 3-(2′-(((2,4′-dichloro-2′-methyl-[1,1′-biphenyl]-4-yl)amino)methyl)-2-methyl-5′-(trifluoromethyl)-[1,1′-biphenyl]-4-ylcarboxamido)propanoic acid], the pKi is 7.05.

In turn, `COc1cc(C(F)(F)F)cc(-c2ccc(C(=O)NCCC(=O)O)cc2)c1CNc1ccc(-c2ccc(C(F)(F)F)cc2Cl)cc1` [Compound 16, 3-(2′-(((2′-chloro-4′-(trifluoromethyl)-[1,1′-biphenyl]-4-yl)amino)methyl)-3′-methoxy-5′-(trifluoromethyl)-[1,1′-biphenyl]-4-ylcarboxamido)propanoic acid] gave a pKi of 7.33.

`Cc1cc(C(F)(F)F)ccc1-c1ccc(NCc2ccc(C(F)(F)F)cc2-c2ccc(C(=O)NCCC(=O)O)cc2C)cc1Cl` [Compound 6, 3-(2′-(((2-chloro-2′-methyl-4′-(trifluoromethyl)-[1,1′-biphenyl]-4-yl)amino)methyl)-2-methyl-5′-(trifluoromethyl)-[1,1′-biphenyl]-4-ylcarboxamido)propanoic acid] gave a pKi of 7.15.

Regarding `O=C(O)CCNC(=O)c1ccc(-c2cc(C(F)(F)F)ccc2CNc2ccc(-c3ccc(C(F)(F)F)cc3Cl)c(Cl)c2)cc1` [Compound 3, 3-(2′-(((2,2′-dichloro-4′-(trifluoromethyl)-[1,1′-biphenyl]-4-yl)amino)methyl)-5′-(trifluoromethyl)-[1,1′-biphenyl]-4-ylcarboxamido)propanoic acid], the pKi is 7.17.

`Cc1cc(C(F)(F)F)ccc1-c1ccc(NCc2ccc(C(F)(F)F)cc2-c2ccc(C(=O)NCCC(=O)O)cc2)cc1Cl` [Compound 2, 3-(2′-(((2-chloro-2′-methyl-4′-(trifluoromethyl)-[1,1′-biphenyl]-4-yl)amino)methyl)-5′-(trifluoromethyl)-[1,1′-biphenyl]-4-ylcarboxamido)propanoic acid]: the pKi was 7.38.

`Cc1cc(C(F)(F)F)ccc1-c1ccc(NCc2c(-c3ccc(C(=O)NCCC(=O)O)cc3)cc(C(F)(F)F)cc2C(C)C)cc1Cl` [Compound 17, 3-(2′-(((2-chloro-2′-methyl-4′-(trifluoromethyl)-[1,1′-biphenyl]-4-yl)amino)methyl)-3′-isopropyl-5′-(trifluoromethyl)-[1,1′-biphenyl]-4-ylcarboxamido)propanoic acid] had a pKi of 7.52.

In turn, `Cc1cc(Cl)ccc1-c1ccc(NCc2ccc(C(F)(F)F)cc2-c2ccc(C(=O)NCCC(=O)O)cc2)cc1Cl` [Compound 1, 3-(2′-(((2,4′-dichloro-2′-methyl-[1,1′-biphenyl]-4-yl)amino)methyl)-5′-(trifluoromethyl)-[1,1′-biphenyl]-4-ylcarboxamido)propanoic acid] showed a pKi of 7.24.

`O=C(O)CCNC(=O)c1ccc(-c2cc(C(F)(F)F)ccc2CNc2ccc(-c3ccc(Cl)cc3Cl)cc2)cc1` [Compound 4, 3-(2′-(((2′,4′-dichloro-[1,1′-biphenyl]-4-yl)amino)methyl)-5′-(trifluoromethyl)-[1,1′-biphenyl]-4-ylcarboxamido)propanoic acid] gave a pKi of 6.82.

`COc1cc(C(F)(F)F)cc(-c2ccc(C(=O)NCCC(=O)O)cc2)c1CNc1ccc(-c2ccc(Cl)cc2)c(Cl)c1` [Compound 15, 3-(2′-(((2,4′-dichloro-[1,1′-biphenyl]-4-yl)amino)methyl)-3′-methoxy-5′-(trifluoromethyl)-[1,1′-biphenyl]-4-ylcarboxamido)propanoic acid]: the pKi is 7.24.

Broadly, the pKi is the Ki on a negative log10 scale, so that one unit is a factor of ten. A lower pKi goes with a large Ki.
